Source: patent publication US10016515B2, “DMA, a bis-benzimidazole, confers radioprotection to the intestine via Akt/NFκB dual pathway activation” (Jawaharlal Nehru University, priority 2016, dated 2018)

Legend:
[1] = system: Balb/c mice and tumor bearing mice tissues; test: Tissue histopathology after 8 Gy TBI; assay type: in vivo, mouse
Description: The hepatic, spleen and small intestine specimens were collected from Balb/c mice and tumor bearing mice three days after 8 Gy TBI with or without pre-treatment with DMA (50 mg/kg) 2 hour before TBI. Tissue specimens were fixed in 10% buffered formalin, embedded in paraffin, sectioned and stained with H&E and examined using an upright trinocular microscope attached to a CCD camera.

[2] = system: MRC5 cells; test: Growth kinetics with DMA prior to 6 Gy radiation; assay type: cell-based, human; settings: for % growth compared to control: MRC5, 50 μM DMA prior to 6 Gy; for % radioprotection: MRC5, 6 Gy
Description: FIG. 2. Radioprotection by DMA Against Radiation in MRC5 and A549 Cell Lines. A) Proliferation of viable MRC5. B) Graphical representation of % survival of MRC5 cell line at 24 and 48 h C) A549 treated with 50 μM DMA in presence and absence of 6 Gy radiation and D) Graphical representation of % survival of A549 cell line at 24 and 48 h. Cell numbers were determined by haemocytometer at 0, 6, 12, 24 and 48 h. Values are mean (±SD) of three independent experiments. *p<0.05 compared to the control group.
2 h subsequent to DMA treatment, cells was exposed to γ-irradiation (1.3 Gy/min dose rate) using Co-60 source (Institute of Nuclear Medicine and Allied Sciences, Delhi, India). Following irradiation, cells were incubated for 4 h in a 5% CO2 humidified incubator and processed for further sample preparation.

[3] = system: HEK293 cells; test: Clonogenicity assay with Akt depleted cells; assay type: cell-based, human; settings: 5Gy
Description: (§1) HEK 293 cells were transfected with Akt siRNA and control-siRNA (Santa Cruz Biotechnology Inc.) according to the manufacturer's instructions. Semi-quantitative RT-PCR was performed with primers specific for Akt and ACTB in control siRNA and Akt siRNA treated HEK cells for analysing knockdown of Akt […] gene expression.
Exponentially growing HEK cells post siRNA (siRNA-Akt and control siRNA transfections) were treated with 50 μM DMA for 1 h and irradiated with 0, 1, 2, 5 and 8 Gy of radiation dose at RT. Cells were seeded into 60 mm dishes in triplicate, at various densities and cells were stained with crystal violet to count colonies. Same experiment was done with control siRNA-transfected HEK cells. Percentage radioprotection was calculated by following formula % of Protection in radiation treated cells=(Survival fraction in siRNA+DMA treated cells/Survival fraction in only siRNA treated cells/)×100.

[4] = system: HEK293 cells; test: Annexin-V staining, control siRNA and Akt siRNA transfected cells; assay type: cell-based, human; settings: for Apoptotic events: Akt knocked down HEK293, DMA+Radiation; for Total early and late apoptotic cells: control siRNA HEK293, DMA+Radiation
Description: as §1
HEK293 cells (2×10^5 cells/plate) were transfected with control siRNA and siRNA-Akt, and DMA, Radiation and DMA+Radiation treatments were given as described earlier and samples were collected at 3, 6, 12, 18 and 24 h (data not shown for 12 and 18 h). Samples were prepared according to the manufacturer's instructions (BD Pharmingen™ Annexin V: FITC Apoptosis Detection Kit I, Catalog Number 556547, USA) and the samples were subjected to flow cytometry analysis (Becton Dickinson).

[5] = system: Balb/c mice liver tissue; test: Biochemical estimations of antioxidant enzymes, thiols and lipid peroxidation in liver; assay type: in vivo, mouse; design: MDA level in hepatic tissues / Reduced glutathione (GSH) level in liver / GST level / GST content / SOD activity / SOD level / Total thiol contents in liver homogenates: unit not given here
Description: Mice hepatic tissues were homogenised using REMI homogenizer in phosphate buffer and centrifuged at 10,000×g for 15 min and aliquots of supernatant were separated. The supernatant was used for the biochemical estimations using standard spectrophotometric reported methods. The total protein was determined by the Lowry method.
The liver supernatant was incubated for 10 min and the absorbance was measured at 412 nm and total thiol content was calculated by standard method. The amount of MDA was done by reaction with thiobarbituric acid (TBA) at 532 nm by literature method.
Glutathione was measured according to the Ellman's method.
Superoxide dismutase (SOD) activity was assayed according to the Marklund and Marklund method. The activity of GST was determined by using CDNB as the substrate. The reaction mixture contained 1 mM of CDNB, 1 mM GSH in 0.1M phosphate buffer (pH 6.5). The formation of the GSH-CDNB conjugate was determined at 340 nm and the activity was calculated by using e=9.6 mM-1 cm-1.

[6] = system: Akt/NFκB pathway in melanoma tissue of mice; test: Immunoblot analysis in tumor tissue; assay type: in vivo, mouse
Description: EAT and B16F10 melanoma cell line were harvested and 10×10^6 and 0.8×10^6 cells respectively were injected subcutaneously in the Balb/c mice (n=24) on the right thigh. When tumors reached 0.5 cm^3 in volume, animals were randomized and divided into 4 different groups. The first test group was treated with 50 mg/kg, i.v. DMA, second test group subjected to 8 Gy TBI. Third group received 50 mg/kg, i.v. DMA and 8 Gy TBI both. The control group was similarly administered normal saline (0.1 ml, i.v.). On every alternate days, tumor-bearing thigh of each animal was shaved, and the longest (1) and shortest diameter (b) of the tumors along with height (h) were measured with the help of a vernier calliper. Tumor weight of each animal was calculated using the formula l*b*h/2.
HEK293, MRC5 and A549 cells were treated as indicated earlier. The cell pellet was resuspended in RIPA buffer and allowed to swell on ice for 30 min. Balb/c intestine tissue and tumor tissues were homogenized in RIPA buffer. Protein concentration was determined using Bradford's Assay (Bangalore Genei). […] Signals were detected using enhanced chemiluminescence (ECL system, Pierce) on X-ray film.

[7] = 50 mg/kg i.v. before 8Gy TBI, 3 days postirradiation
[8] = melanoma TBM, 50 mg/kg i.v., 8Gy TBI

COc1ccc(-c2nc3cc(-c4nc5cc(N6CCN(C)CC6)ccc5[nH]4)ccc3[nH]2)cc1OC [DMA, 5-(4-methylpiperazin-1-yl)-2-[2′-(3,4-dimethoxyphenyl)-5′-benzimidazolyl]benzimidazole]
Intestine histology [1, 7]: restored the crypts and villi architecture
Liver histology [1, 7]: reduction in the number of pyknotic and inflammatory kupffer cells
Spleen histology [1, 7]: restored the white pulp
Intestine histology, tumor bearing mice [1, 8]: intact better heighted villi and crypts
Lung alveolar structure, tumor bearing mice [1, 8]: less destructured
Spleen histology, tumor bearing mice [1, 8]: structural retention through white and red pulp protection
% growth compared to control ([2]; 24 h): 58.62%
% growth compared to control ([2]; 48 h): 74%
% radioprotection ([2]; 24 h): 20.69%
% radioprotection ([2]; 48 h): 29%
% radioprotection (clonogenicity) ([3]; Akt siRNA treated cells): 7.5%
% radioprotection (clonogenicity) ([3]; control siRNA treated cells): 40.6%
Apoptotic events ([4]; 3 h): 23%
Apoptotic events ([4]; 6 h): 21%
Apoptotic events ([4]; 24 h): 22%
Total early and late apoptotic cells ([4]; 3 h): 12%
Total early and late apoptotic cells ([4]; 6 h): 9%
Total early and late apoptotic cells ([4]; 24 h): 7%
Glutathione reductase activity ([5]; DMA 2 h prior to irradiation vs irradiated group): significant decrease
SOD activity ([5]; DMA only): 16.96±1.35
GST level ([5]; DMA only, 200 mg/kg oral): 2.76±0.32
MDA level in hepatic tissues ([5]; DMA only, 200 mg/kg oral): 0.19±0.06
Reduced glutathione (GSH) level in liver ([5]; DMA only, 200 mg/kg oral): 5.07±0.09
Reduced glutathione (GSH) level in liver ([5]; DMA pre-treatment + 8Gy TBI): 3.73±0.69
MDA level in hepatic tissues ([5]; DMA pre-treatment + 8Gy TBI, 24 h post-irradiation): 0.20±0.04
Total thiol contents in liver homogenates ([5]; DMA pre-treatment + TBI): 0.91±0.08
SOD level ([5]; DMA pre-treatment to radiation (8Gy)): 15.50±0.60
GST content ([5]; DMA prior to radiation): 2.78±0.25
Phosphorylated Akt level ([6]; DMA pretreated to irradiation of TBM vs other conditions): lower
Akt/NFκB signaling in response to radiation ([6]; tumor tissues of TBM, 50 mg/kg i.v. + 8Gy TBI): does not modulate
